Common to all, as to assay type: cell-based
The subject of test [1] is androgen-treated cancer cell lines (AR+ and AR-). Briefly: Cell growth after 7 days of treatment with dihydrotestosterone, enzalutamide and their combination. Particulars: for cell growth on androgen stimulation: DHT 10 nM. As to the method: (§1) • Figure 1. […] Study of cell proliferation by MTT assay in AR+ MCF7, BT474, BT549 and HS 578T lines and in AR-HCC1937, HCC1569 and MDA-MB-231 lines at 24, 48 and 72 hours after enzalutamide treatment. Error bars are not shown when smaller than the symbol size. IC50 (best fit and 95% confidence interval) shown below. • Figure 2. […] Cell viability study by Annexin V/propidium iodide labelling in AR+ MCF7, BT474, BT549 and HS 578T lines and in AR- HCC1937, HCC1569 and MDA-MB-231 lines after 72 hours of enzalutamide treatment. Error bars represent SD. Significance between C- and different conditions shown without brackets (^∗p < 0.05, ^∗∗p < 0.01, ★p<0.001). • Figure 3. A) Effect of […] dihydrotestosterone, 10 µM enzalutamide and their combination on the indicated cell lines after 7 days of treatment. Data are the average of three independent experiments. Error bars represent SD. Statistically significant differences between C- and different conditions are shown without brackets (*p < 0.05, **p < 0.01, *p<0.001). […] Study of cell proliferation by MTT assay in the AR+ LN18 line and in the AR- SKOV-3 and CAL33 lines at 24, 48 and 72 hours after treatment with enzalutamide.
To assess whether the effect of enzalutamide is androgen-independent, we tested the effect of enzalutamide on androgen-treated cancer cell lines. We studied the effects of dihydrotestosterone (DHT) (10 nM), enzalutamide (10 µM) and their combination on the different lines (Figure 3A).

The test system of test [2] is AR+ MCF7, BT474, BT549 and HS 578T lines and AR- HCC1937, HCC1569 and MDA-MB-231 lines. As to the kind of experiment: Cell proliferation by MTT assay in breast cancer cell lines. On the procedure:
as §1
In general terms: Tetrazolium assays rely on reduction of a dye to a coloured formazan, in cell work by metabolically active cells.

Test [3] has the same test system. Briefly: Apoptosis / cell viability by Annexin V/propidium iodide labelling and flow cytometry in breast cancer cell lines. The settings on record: varying concentrations, 72 hours, independent of receptor status. On the procedure:
as §1

For test [4], the system named is AR+ LN18 line and AR- SKOV-3 and CAL33 lines. As to the kind of experiment: Cell proliferation by MTT assay in ovarian, glioblastoma and head and neck cancer cell lines. The settings on record: SKOV-3 (AR-), 24, 48 and 72 hours, preliminary results. As to the method:
as §1

With `C[C@]12CCC(=O)C[C@@H]1CC[C@@H]1[C@@H]2CC[C@]2(C)[C@@H](O)CC[C@@H]12` [dihydrotestosterone], the “cell growth on androgen stimulation” value is “No significant differences” in test [1] (BT474 (AR+) and AR- lines); “highest increase in cell growth” in test [1] (HS 578 T, followed by BT549 and MCF7 (AR+)).
Turning to `CNC(=O)c1ccc(N2C(=S)N(c3ccc(C#N)c(C(F)(F)F)c3)C(=O)C2(C)C)cc1F` [enzalutamide], the “cell growth inhibition, ranking of cell lines” value in test [2] (MDA-MB-231 (AR-) line, 24, 48 or 72 hours, followed by HCC1569 (AR-), BT474 (AR+) and BT549 (AR+)) is “the most affected”. Besides, the cell proliferation entry in test [2] (all breast cancer cell lines tested (AR+ and AR-), 24, 48 and 72 hours of treatment, higher efficacy at 72 hours) is “inhibited cell proliferation in a dose- and time-dependent manner in all cell lines tested”. Besides, in test [3], the apoptosis result was “induced apoptosis in a dose-dependent manner”. In addition, the inhibition of proliferation entry in test [1] (enzalutamide 10 µM alone) was “induced a higher inhibition of proliferation than that observed at 72 hours”. The “inhibition of cell proliferation” value in test [1] (enzalutamide 10 µM combined with DHT 10 nM, AR+ and AR- cells) is on record as “the inhibition of cell proliferation was less than that of enzalutamide alone”. The proliferation result in test [4] is on record as “induces an inhibitory effect on proliferation regardless of the androgen receptor status of the tumours”.

The values above are taken from patent publication EP4400100A1, “ANT[…] USE IN THE TREATMENT OF CANCER” (Instituto de Investigación Biomédica de Salamanca De la …, priority 2023, dated 2024).
